No end group written: not given here.
Key:
[1] = tested on: Shigella dysentariae ATCC 9752; assay type: cell-based; conditions: broth microdilution, 1–128 μg/mL two-fold dilutions; triplicate, value reproduced twice or three times
Protocol: (§1) The antimicrobial activity of each peptide was determined against four strains of Gram-positive bacteria (Bacillus subtilis ATCC 6633, Staphylococcus aureus ATCC 6538p, Staphylococcus epidermis ATCC 12228, and Micrococcus luteus ATCC 10240) and five strains of Gram-negative bacteria (Escherichia coli ATCC 25922, Shigella dysentariae ATCC 9752, Salmonella typhomurium ATCC 14028, Klebsiella pneumoniae ATCC 10031, and Pseudomonas aeruginosa ATCC 27853). In addition, a methicillin-resistant Staphylococcus aureus strain, MRSA-TK784 [21, 42], was employed as a multi-drug resistant bacterium. Antimicrobial susceptibility was measured as the minimal inhibitory concentration (MIC), which was determined by the standard broth microdilution method, as described previously. […] The tests were performed in triplicate, and the MIC values that were reproduced twice or three times in the three independent measurements were recorded.

[2] = tested on: 5 Gram-negative strains tested; assay type: cell-based, Gram-negative bacteria; conditions: against 5 Gram-negative strains tested
Protocol: (§2) Table 1 summarizes the MIC values of our model peptide isomers against various bacterial species, including four Gram-positive, five Gram-negative and a multi-drug resistant strain. […] In addition, all of the peptides were fairly active (MICs ≤ 16 μg/mL) against the MRSA-TK784 strain, which is not susceptible to β-lactam antibiotics and protein synthesis inhibitors and moderately resistant to vancomycin [21, 42].
as §1

[3] = tested on: 4 Gram-positive strains tested; assay type: cell-based, Gram-positive bacteria; conditions: against 4 Gram-positive strains tested
Protocol: as §2, §1

[4] = tested on: all of the 9 strains tested; assay type: cell-based, Gram-positive and Gram-negative bacteria; conditions: against all of the 9 strains tested
Protocol: as §2, §1

[5] = tested on: human red blood cells; assay type: cell-based
Protocol: The hemolytic assay was performed as described previously. In brief, suspensions of human red blood cells (10% v/v in PBS) were treated for 1 h with various concentrations (1–128 μg/mL, two-fold serial dilutions) of the peptides. The absorbance of the supernatant was then measured at 550 nm. The relative value to 100% hemolysis of human red blood cells treated with 0.2% Triton X-100 was defined as the percentage of hemolysis. The tests were performed using triplicate samples, and the average values of the three independent measurements were recorded. The minimal hemolytic concentration (MHC) value was determined as the lowest peptide concentration that produces more than 5% hemolysis.

[6] = tested on: MRSA-TK784; assay type: cell-based, methicillin-resistant Staphylococcus aureus; conditions: Methicillin-Resistant S. aureus; broth microdilution, 1–128 μg/mL two-fold dilutions; triplicate
Protocol: as §1

KKLLKKLLKWL-NH2 [W10]
Minimal inhibitory concentration, S. dysentariae [1]: 1 µg/mL | GM (geometric mean of MICs), Gram (−) [2]: 1.7 µg/mL | GM (geometric mean of MICs), Gram (+) [3]: 1.2 µg/mL | GM (geometric mean of MICs), Gram (+,−) [4]: 1.5 µg/mL

KKLLKWLKKLL-NH2 [W6]
Minimal inhibitory concentration, S. dysentariae [1]: 2 µg/mL | GM (geometric mean of MICs), Gram (−) [2]: 3.5 µg/mL | hemolytic activity (in words) [5]: somewhat hemolytic | GM (geometric mean of MICs), Gram (+,−) [4]: 3.2 µg/mL

KLLKKLLKWLK-NH2 [W9]
Minimal inhibitory concentration, S. dysentariae [1]: 2 µg/mL | GM (geometric mean of MICs), Gram (−) [2]: 2.3 µg/mL | GM (geometric mean of MICs), Gram (+) [3]: 2.4 µg/mL | GM (geometric mean of MICs), Gram (+,−) [4]: 2.3 µg/mL

KLLKWLKKLLK-NH2 [W5]
Minimal inhibitory concentration, S. dysentariae [1]: 2 µg/mL | GM (geometric mean of MICs), Gram (−) [2]: 2.6 µg/mL | GM (geometric mean of MICs), Gram (+) [3]: 2.0 µg/mL | GM (geometric mean of MICs), Gram (+,−) [4]: 2.3 µg/mL

KWLKKLLKKLL-NH2 [W2]
Minimal inhibitory concentration, S. dysentariae [1]: 1 µg/mL | GM (geometric mean of MICs), Gram (−) [2]: 2.3 µg/mL | GM (geometric mean of MICs), Gram (+) [3]: 2.4 µg/mL | GM (geometric mean of MICs), Gram (+,−) [4]: 2.3 µg/mL

LKKLLKKLLKW-NH2 [W11]
Minimal inhibitory concentration, S. dysentariae [1]: 2 µg/mL | GM (geometric mean of MICs), Gram (−) [2]: 3.5 µg/mL | Minimal inhibitory concentration, MRSA-TK784 [6]: 16 µg/mL | GM (geometric mean of MICs), Gram (+) [3]: 2.4 µg/mL | GM (geometric mean of MICs), Gram (+,−) [4]: 2.9 µg/mL

LKKLLKWLKKL-NH2 [W7]
Minimal inhibitory concentration, S. dysentariae [1]: 2 µg/mL | GM (geometric mean of MICs), Gram (−) [2]: 3.0 µg/mL | GM (geometric mean of MICs), Gram (+) [3]: 2.4 µg/mL | GM (geometric mean of MICs), Gram (+,−) [4]: 2.7 µg/mL

LKWLKKLLKKL-NH2 [W3]
Minimal inhibitory concentration, S. dysentariae [1]: 2 µg/mL | GM (geometric mean of MICs), Gram (−) [2]: 3.5 µg/mL | GM (geometric mean of MICs), Gram (+,−) [4]: 3.2 µg/mL

LLKKLLKWLKK-NH2 [W8]
Minimal inhibitory concentration, S. dysentariae [1]: 4 µg/mL | GM (geometric mean of MICs), Gram (−) [2]: 4.6 µg/mL | GM (geometric mean of MICs), Gram (+) [3]: 3.4 µg/mL | GM (geometric mean of MICs), Gram (+,−) [4]: 4.0 µg/mL

LLKWLKKLLKK-NH2 [W4]
Minimal inhibitory concentration, S. dysentariae [1]: 2 µg/mL | GM (geometric mean of MICs), Gram (−) [2]: 3.5 µg/mL | GM (geometric mean of MICs), Gram (+) [3]: 2.4 µg/mL | GM (geometric mean of MICs), Gram (+,−) [4]: 2.9 µg/mL

WLKKLLKKLLK-NH2 [W1]
Minimal inhibitory concentration, S. dysentariae [1]: 2 µg/mL | GM (geometric mean of MICs), Gram (−) [2]: 3.0 µg/mL | Minimal inhibitory concentration, MRSA-TK784 [6]: 8 µg/mL | GM (geometric mean of MICs), Gram (+) [3]: 2.4 µg/mL | GM (geometric mean of MICs), Gram (+,−) [4]: 2.7 µg/mL

— PMC6270530, “Structural Characterization of de Novo Designed L5K5W Model Peptide Isomers with Potent Antimicrobial and Varied Hemolytic Activities” (Molecules, 2013)
